Read-outs that look alike come from different tables or passages of the source. Positions of bridges follow the written chain, without caps; N, C: chain ends. Non-standard residues stand in square brackets, D forms with d. Residues, ends and D or L forms follow the SMILES beside them. 2Nal = N[C@@H](Cc1ccc2ccccc2c1)C(=O)O; Pra = C#CC[C@H](N)C(=O)O; Abu = CC[C@H](N)C(=O)O
Assays:
Experiment in all cases: cell-based
hNav1.5 = hNav1.5 (Homo sapiens, UniProt Q14524)
hNav1.7 = hNav1.7 (Homo sapiens, UniProt Q15858); format: cell-based
hNav1.3 = hNav1.3 (Homo sapiens, UniProt Q9NY46); settings: IonWorks Quattro, read-out: IWQ Use Nav1.3
[1] = IonWorks Quattro, use-dependent protocol, hNav1.5, read-out: IWQ Use Nav1.5
[2] = IonWorks Quattro, use-dependent protocol, hNav1.7, read-out: IWQ Use Nav1.7
[3] = use-dependent protocol, hNav1.3
[4] = IonWorks Quattro, use-dependent block, hNav1.5, read-out: IWQ Use Nav1.5
[5] = IonWorks Quattro, use-dependent block, hNav1.7, read-out: IWQ Use Nav1.7

Chain of hNav1.5 (Q14524 whole entry, looked up): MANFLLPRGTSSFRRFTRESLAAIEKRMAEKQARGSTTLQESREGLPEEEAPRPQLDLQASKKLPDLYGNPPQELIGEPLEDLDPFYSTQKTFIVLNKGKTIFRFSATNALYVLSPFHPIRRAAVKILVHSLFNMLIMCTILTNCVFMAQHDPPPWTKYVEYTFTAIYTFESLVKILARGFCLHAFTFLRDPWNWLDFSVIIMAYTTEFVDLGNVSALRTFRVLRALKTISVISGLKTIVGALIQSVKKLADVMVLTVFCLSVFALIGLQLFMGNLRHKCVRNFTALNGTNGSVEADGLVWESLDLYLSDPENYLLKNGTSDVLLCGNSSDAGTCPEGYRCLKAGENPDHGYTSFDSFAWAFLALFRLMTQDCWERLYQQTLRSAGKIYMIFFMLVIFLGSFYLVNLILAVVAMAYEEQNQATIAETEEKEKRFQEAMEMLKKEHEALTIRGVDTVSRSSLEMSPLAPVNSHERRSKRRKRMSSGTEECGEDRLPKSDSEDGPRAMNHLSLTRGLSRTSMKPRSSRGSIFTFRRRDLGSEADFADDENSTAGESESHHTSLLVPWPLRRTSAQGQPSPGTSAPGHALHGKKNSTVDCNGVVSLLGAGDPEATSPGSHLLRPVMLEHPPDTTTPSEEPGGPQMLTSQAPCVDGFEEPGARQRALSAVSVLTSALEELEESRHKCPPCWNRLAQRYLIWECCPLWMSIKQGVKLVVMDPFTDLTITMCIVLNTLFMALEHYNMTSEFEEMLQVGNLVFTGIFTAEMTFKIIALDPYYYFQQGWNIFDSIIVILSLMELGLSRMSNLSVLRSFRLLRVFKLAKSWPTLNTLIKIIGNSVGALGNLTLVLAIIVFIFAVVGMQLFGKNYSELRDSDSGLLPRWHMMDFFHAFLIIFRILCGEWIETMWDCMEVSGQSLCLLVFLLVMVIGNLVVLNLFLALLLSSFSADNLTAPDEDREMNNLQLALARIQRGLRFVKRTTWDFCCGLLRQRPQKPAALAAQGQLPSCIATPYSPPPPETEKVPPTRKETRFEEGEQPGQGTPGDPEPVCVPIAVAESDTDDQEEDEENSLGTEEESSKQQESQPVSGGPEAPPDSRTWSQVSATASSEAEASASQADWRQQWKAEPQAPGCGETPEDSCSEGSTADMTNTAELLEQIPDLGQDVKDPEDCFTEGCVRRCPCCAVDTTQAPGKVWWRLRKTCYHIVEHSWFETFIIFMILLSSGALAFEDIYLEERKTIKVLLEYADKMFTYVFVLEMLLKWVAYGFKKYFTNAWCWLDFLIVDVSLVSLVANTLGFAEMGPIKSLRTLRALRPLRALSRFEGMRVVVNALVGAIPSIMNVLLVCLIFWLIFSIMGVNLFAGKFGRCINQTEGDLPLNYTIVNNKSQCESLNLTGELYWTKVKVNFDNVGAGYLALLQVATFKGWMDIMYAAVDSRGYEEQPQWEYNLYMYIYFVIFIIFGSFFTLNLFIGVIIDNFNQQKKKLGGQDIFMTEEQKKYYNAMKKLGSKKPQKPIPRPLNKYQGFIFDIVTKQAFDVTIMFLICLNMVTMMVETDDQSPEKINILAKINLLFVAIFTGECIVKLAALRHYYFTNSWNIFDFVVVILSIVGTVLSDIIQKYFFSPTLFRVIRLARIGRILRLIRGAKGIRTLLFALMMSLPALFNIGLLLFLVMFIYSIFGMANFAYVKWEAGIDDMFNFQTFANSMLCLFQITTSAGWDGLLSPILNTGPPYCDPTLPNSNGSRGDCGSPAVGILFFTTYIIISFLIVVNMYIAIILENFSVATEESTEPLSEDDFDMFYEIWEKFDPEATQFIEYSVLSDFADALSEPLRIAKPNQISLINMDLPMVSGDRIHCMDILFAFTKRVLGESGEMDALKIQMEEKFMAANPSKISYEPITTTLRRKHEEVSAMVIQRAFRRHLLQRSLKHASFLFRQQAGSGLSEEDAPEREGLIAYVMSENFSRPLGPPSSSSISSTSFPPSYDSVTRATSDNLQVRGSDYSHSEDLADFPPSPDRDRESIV
Chain of hNav1.3 (Q9NY46 whole entry, looked up): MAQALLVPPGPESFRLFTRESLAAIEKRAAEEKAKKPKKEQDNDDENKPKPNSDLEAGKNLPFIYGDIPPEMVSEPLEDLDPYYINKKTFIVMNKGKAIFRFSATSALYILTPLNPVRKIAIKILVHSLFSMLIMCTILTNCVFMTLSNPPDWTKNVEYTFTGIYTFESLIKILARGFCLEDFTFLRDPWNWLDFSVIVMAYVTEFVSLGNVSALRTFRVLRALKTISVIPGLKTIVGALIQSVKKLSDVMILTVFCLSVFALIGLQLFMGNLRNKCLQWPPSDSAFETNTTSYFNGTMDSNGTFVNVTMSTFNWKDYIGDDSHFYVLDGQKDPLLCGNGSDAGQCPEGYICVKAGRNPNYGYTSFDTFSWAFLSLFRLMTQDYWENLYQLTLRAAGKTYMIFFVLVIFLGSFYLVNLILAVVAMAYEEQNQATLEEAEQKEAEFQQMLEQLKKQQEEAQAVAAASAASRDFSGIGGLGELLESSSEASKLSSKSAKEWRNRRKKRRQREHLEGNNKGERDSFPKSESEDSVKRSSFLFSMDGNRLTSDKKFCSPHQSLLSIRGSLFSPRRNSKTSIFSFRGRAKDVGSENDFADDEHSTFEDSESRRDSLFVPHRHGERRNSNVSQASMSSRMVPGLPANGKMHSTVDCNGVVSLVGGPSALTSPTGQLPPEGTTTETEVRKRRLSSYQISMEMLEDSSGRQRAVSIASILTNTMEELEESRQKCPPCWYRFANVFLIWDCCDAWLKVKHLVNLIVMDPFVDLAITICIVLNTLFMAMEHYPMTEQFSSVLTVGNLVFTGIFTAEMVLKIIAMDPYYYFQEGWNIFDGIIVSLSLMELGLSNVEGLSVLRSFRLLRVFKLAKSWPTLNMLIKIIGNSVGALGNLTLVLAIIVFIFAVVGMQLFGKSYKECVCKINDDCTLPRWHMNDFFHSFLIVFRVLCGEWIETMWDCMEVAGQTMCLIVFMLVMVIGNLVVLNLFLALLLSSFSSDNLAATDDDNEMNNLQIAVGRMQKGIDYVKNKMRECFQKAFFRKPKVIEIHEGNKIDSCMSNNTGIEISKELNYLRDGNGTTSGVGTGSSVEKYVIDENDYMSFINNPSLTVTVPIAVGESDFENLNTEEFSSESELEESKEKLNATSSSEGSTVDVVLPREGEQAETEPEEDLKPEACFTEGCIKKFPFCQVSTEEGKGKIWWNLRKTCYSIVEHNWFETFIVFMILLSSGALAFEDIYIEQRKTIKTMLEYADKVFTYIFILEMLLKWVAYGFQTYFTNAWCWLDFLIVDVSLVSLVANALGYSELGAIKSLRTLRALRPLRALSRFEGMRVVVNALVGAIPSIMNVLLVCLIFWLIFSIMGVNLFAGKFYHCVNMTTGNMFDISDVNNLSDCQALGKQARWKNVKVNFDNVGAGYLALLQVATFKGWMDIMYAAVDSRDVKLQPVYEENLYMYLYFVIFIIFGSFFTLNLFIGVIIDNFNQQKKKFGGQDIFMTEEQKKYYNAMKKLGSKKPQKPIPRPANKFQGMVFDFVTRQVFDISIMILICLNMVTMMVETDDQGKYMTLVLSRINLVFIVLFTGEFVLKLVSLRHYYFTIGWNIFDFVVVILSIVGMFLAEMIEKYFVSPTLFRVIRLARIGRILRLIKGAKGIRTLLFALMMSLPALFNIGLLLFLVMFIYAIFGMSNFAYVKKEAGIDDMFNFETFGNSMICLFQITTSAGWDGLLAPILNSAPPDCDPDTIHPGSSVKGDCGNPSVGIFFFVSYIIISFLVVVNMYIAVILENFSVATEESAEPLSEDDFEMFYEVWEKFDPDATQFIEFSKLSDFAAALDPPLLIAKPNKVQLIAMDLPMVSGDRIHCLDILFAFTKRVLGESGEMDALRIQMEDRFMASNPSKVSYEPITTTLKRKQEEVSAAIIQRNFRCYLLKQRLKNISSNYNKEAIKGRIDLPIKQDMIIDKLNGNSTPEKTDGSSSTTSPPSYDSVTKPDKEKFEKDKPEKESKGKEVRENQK

Row | Compound | IC50 (hNav1.5; [1]) [µM] | IC50 (hNav1.7; [2]) [nM] | IC50 (hNav1.3; [3]) [nM] | IC50 (hNav1.5; [4]) [µM] | IC50 (hNav1.7; [5]) [nM] | IC50 (hNav1.3; use-dependent block, hNav1.3) [nM] | other results
1 | CC[C@H](C)[C@@H]1NC(=O)[C@@H]2CSSC[C@@H]3NC(=O)[C@H](C(C)C)NC(=O)[C@H](CC(C)C)NC(=O)[C@H](CC(N)=O)NC(=O)[C@@H]4CCCN4C(=O)[C@H](CCCNC(=N)N)NC(=O)[C@H](CSSC[C@H](NC(=O)[C@@H](N)CC(=O)O)C(=O)N[C@@H](CC(C)C)C(=O)NCC(=O)NCCC(=O)N[C@@H](CCSC)C(=O)N[C@@H](CCCNC(=N)N)C(=O)N[C@@H](CCCCN)C(=O)N2)NC(=O)[C@H](CSSC[C@@H](C(=O)N[C@@H](CCCCN)C(=O)N[C@@H](Cc2ccc(O)cc2)C(=O)N[C@H](C(=O)N[C@@H](Cc2ccccc2)C(N)=O)C(C)C)NC(=O)[C@H](Cc2c[nH]c4ccccc24)NC(=O)[C@H](CCCCN)NC(=O)[C@H](Cc2c[nH]cn2)NC(=O)[C@H]([C@@H](C)O)NC(=O)[C@H](CCCNC(=N)N)NC(=O)[C@H](CO)NC3=O)NC(=O)[C@H](CCCCN)NC(=O)[C@H](CC(=O)O)NC(=O)[C@H](CC(N)=O)NC(=O)[C@H](CC(=O)O)NC(=O)[C@@H]2CCCN2C1=O [compound 648] | > 5 | 4700 | > 5000 |  |  |  | 
2 | CC[C@H](C)[C@@H]1NC(=O)[C@@H]2CSSC[C@@H]3NC(=O)[C@H](C(C)C)NC(=O)[C@H](CC(C)C)NC(=O)[C@H](CC(N)=O)NC(=O)[C@@H]4CCCN4C(=O)[C@H](CCCNC(=N)N)NC(=O)[C@H](CSSC[C@H](NC(=O)[C@@H](N)CC(=O)O)C(=O)N[C@@H](CC(C)C)C(=O)NCC(=O)N[C@H](C)C(=O)N[C@@H](CCSC)C(=O)N[C@@H](CCCNC(=N)N)C(=O)N[C@@H](CCCCN)C(=O)N2)NC(=O)[C@H](CSSC[C@@H](C(=O)N[C@@H](CCCCN)C(=O)N[C@@H](Cc2ccc(O)cc2)C(=O)N[C@H](C(=O)N[C@@H](Cc2ccccc2)C(N)=O)C(C)C)NC(=O)[C@H](Cc2c[nH]c4ccccc24)NC(=O)[C@H](CCCCN)NC(=O)[C@H](Cc2c[nH]cn2)NC(=O)[C@H]([C@@H](C)O)NC(=O)[C@H](CCCNC(=N)N)NC(=O)[C@H](CO)NC3=O)NC(=O)[C@H](CCCCN)NC(=O)[C@H](CC(=O)O)NC(=O)[C@H](CC(N)=O)NC(=O)[C@H](CC(=O)O)NC(=O)[C@@H]2CCCN2C1=O [compound 647] | > 5 |  | > 5000 |  |  |  | IC50 (hNav1.7): 4500 nM
3 | CCCC[C@@H]1NC(=O)CNC(=O)[C@H](CC(C)C)NC(=O)[C@@H](NC(=O)[C@@H](N)CC(=O)O)CSSC[C@@H]2NC(=O)[C@@H]3CSSC[C@@H](C(=O)N[C@@H](CCCCN)C(=O)N[C@@H](Cc4ccc(O)cc4)C(=O)N[C@H](C(=O)N[C@@H](Cc4ccccc4)C(N)=O)C(C)C)NC(=O)[C@H](Cc4c[nH]c5ccccc45)NC(=O)[C@H](CCCCN)NC(=O)[C@H](Cc4c[nH]cn4)NC(=O)[C@H]([C@@H](C)O)NC(=O)[C@H](CCCNC(=N)N)NC(=O)[C@H](CO)NC(=O)[C@H](CSSC[C@H](NC(=O)[C@H](CCCCN)NC(=O)[C@H](CCCNC(=N)N)NC(=O)[C@H](CCSC)NC1=O)C(=O)N[C@@H]([C@@H](C)CC)C(=O)N1CCC[C@H]1C(=O)N[C@@H](CC(=O)O)C(=O)N[C@@H](CC(N)=O)C(=O)N[C@@H](CC(=O)O)C(=O)N[C@@H](CCCCN)C(=O)N3)NC(=O)[C@H](C(C)C)NC(=O)[C@H](CC(C)C)NC(=O)[C@H](CC(N)=O)NC(=O)[C@@H]1CCCN1C(=O)[C@H](CCCNC(=N)N)NC2=O [compound 651] |  | 77 | 170 |  |  |  | IC50 (hNav1.5; IWQ Use Nav1.5): > 5 µM
4 | CC[C@H](C)[C@@H]1NC(=O)[C@@H]2CSSC[C@@H]3NC(=O)[C@H](C(C)C)NC(=O)[C@H](CC(C)C)NC(=O)[C@H](CC(N)=O)NC(=O)[C@@H]4CCCN4C(=O)[C@H](CCCNC(=N)N)NC(=O)[C@H](CSSC[C@H](NC(=O)[C@@H](N)CC(=O)O)C(=O)N[C@@H](CC(C)C)C(=O)NCC(=O)N[C@@H](Cc4ccccc4)C(=O)N[C@@H](CCSC)C(=O)N[C@@H](CCCNC(=N)N)C(=O)N[C@@H](CCCCN)C(=O)N2)NC(=O)[C@H](CSSC[C@@H](C(=O)N[C@@H](CCCCN)C(=O)N[C@@H](Cc2ccc(O)cc2)C(=O)N[C@H](C(=O)N[C@@H](Cc2ccc4ccccc4c2)C(N)=O)C(C)C)NC(=O)[C@H](Cc2c[nH]c4ccccc24)NC(=O)[C@H](CCCCN)NC(=O)[C@H](Cc2c[nH]cn2)NC(=O)[C@H]([C@@H](C)O)NC(=O)[C@H](CCCNC(=N)N)NC(=O)[C@H](CO)NC3=O)NC(=O)[C@H](CCCCN)NC(=O)[C@H](CC(=O)O)NC(=O)[C@H](CC(N)=O)NC(=O)[C@H](CC(=O)O)NC(=O)[C@@H]2CCCN2C1=O [compound 130] (H-DCLGFMRKCIPDNDKCCRPNLVCSRTHKWCKYV[2Nal]-NH2; disulfide 2-17, 9-23, 16-30) |  |  |  |  |  |  | IC50 (hNav1.5; IonWorks Quattro, use-dependent, […], read-out: IWQ Use Nav1.5): 3.59 µM; IC50 (hNav1.7; IonWorks Quattro, use-dependent, […], read-out: IWQ Use Nav1.7): 40 nM; IC50 (hNav1.3; use-dependent, […]): 20 nM
5 | CC[C@H](C)[C@@H]1NC(=O)[C@@H]2CSSC[C@@H]3NC(=O)[C@H](C(C)C)NC(=O)[C@H](CC(C)C)NC(=O)[C@H](CC(N)=O)NC(=O)[C@@H]4CCCN4C(=O)[C@H](CCCNC(=N)N)NC(=O)[C@H](CSSC[C@H](NC(=O)[C@@H](N)CC(=O)O)C(=O)N[C@@H](CC(C)C)C(=O)NCC(=O)N[C@@H](Cc4ccc5ccccc5c4)C(=O)N[C@@H](CCSC)C(=O)N[C@@H](CCCNC(=N)N)C(=O)N[C@@H](CCCCN)C(=O)N2)NC(=O)[C@H](CSSC[C@@H](C(=O)N[C@@H](CCCCN)C(=O)N[C@@H](Cc2ccc(O)cc2)C(=O)N[C@H](C(=O)N[C@@H](Cc2ccc4ccccc4c2)C(N)=O)C(C)C)NC(=O)[C@H](Cc2c[nH]c4ccccc24)NC(=O)[C@H](CCCCN)NC(=O)[C@H](Cc2c[nH]cn2)NC(=O)[C@H]([C@@H](C)O)NC(=O)[C@H](CCCNC(=N)N)NC(=O)[C@H](CO)NC3=O)NC(=O)[C@H](CCCCN)NC(=O)[C@H](CC(=O)O)NC(=O)[C@H](CC(N)=O)NC(=O)[C@H](CC(=O)O)NC(=O)[C@@H]2CCCN2C1=O [compound 136] (H-DCLG[2Nal]MRKCIPDNDKCCRPNLVCSRTHKWCKYV[2Nal]-NH2; disulfide 2-17, 9-23, 16-30) |  |  |  | 5.14 | 140 | 30 | 
6 | C#CC[C@@H]1NC(=O)[C@H](CC(=O)O)NC(=O)[C@@H]2CCCN2C(=O)[C@H]([C@@H](C)CC)NC(=O)[C@@H]2CSSC[C@@H]3NC(=O)[C@H](C(C)C)NC(=O)[C@H](CC(C)C)NC(=O)[C@H](CC(N)=O)NC(=O)[C@@H]4CCCN4C(=O)[C@H](CCCNC(=N)N)NC(=O)[C@H](CSSC[C@H](NC(=O)[C@@H](N)CC(=O)O)C(=O)N[C@@H](CC(C)C)C(=O)NCC(=O)N[C@@H](CC)C(=O)N[C@@H](CC(C)C)C(=O)N[C@@H](CCCNC(=N)N)C(=O)N[C@@H](CCCCN)C(=O)N2)NC(=O)[C@H](CSSC[C@@H](C(=O)N[C@@H](CCCCN)C(=O)N[C@@H](Cc2ccc(O)cc2)C(=O)N[C@H](C(=O)N[C@@H](Cc2ccccc2)C(N)=O)C(C)C)NC(=O)[C@H](Cc2c[nH]c4ccccc24)NC(=O)[C@H](CCCCN)NC(=O)[C@H](Cc2c[nH]cn2)NC(=O)[C@H]([C@@H](C)O)NC(=O)[C@H](CCCNC(=N)N)NC(=O)[C@H](CO)NC3=O)NC(=O)[C@H](CCCCN)NC(=O)[C@H](CC(=O)O)NC1=O [compound 797] (H-DCLG[Abu]LRKCIPD[Pra]DKCCRPNLVCSRTHKWCKYVF-NH2; disulfide 2-17, 9-23, 16-30) |  |  |  | 34 | 520 | 930 | 

From patent US9340590B2 (priority 2011, dated 2016)
